Measured values published in ChEMBL document CHEMBL5154636, “Discovery of STAT3 and Histone Deacetylase (HDAC) Dual-Pathway Inhibitors for the Treatment of Solid Cancer” (J Med Chem, 2021).

What was measured:
HCT-116 = test: Cytotoxicity against human HCT-116 cells assessed as reduction in cell viability incubated for 48 hrs by MTT assay; format: functional, cell-based; settings: HCT-116, 48 h
MDA-MB-231 = test: Cytotoxicity against human MDA-MB-231 cells assessed as reduction in cell viability incubated for 48 hrs by MTT assay; format: functional, cell-based; settings: MDA-MB-231, 48 h
MCF-10A = test: Cytotoxicity against human MCF-10 A cells assessed as reduction in cell viability at 32 uM incubated for 48 hrs by MTT assay relative to control; format: toxicity, cell-based
L02 = test: Cytotoxicity against human L02 cells assessed as reduction in cell viability at 32 uM incubated for 48 hrs by MTT assay relative to control; format: toxicity, cell-based; settings: l02, 48 h
[1] = Acute toxicity in po dosed ICR mouse assessed as maximum tolerated dose measured after 7 days; format: organism-based; settings: in vivo, time 7 day

Row | Structure (SMILES) | IC50 (HCT-116) [µM] | IC50 (MDA-MB-231) [µM] | Activity (MCF-10A) | Activity (L02) | MTD at 168 h [1] [mg/kg]
1 | COc1cc(/C=C/c2ccc(NCc3ccc(/C=C/C(=O)NO)cc3)cc2)cc(OC)c1 | 11.2 | 5.95 |  |  | 
2 | COc1cc(/C=C/c2ccc(OCc3ccc(C(=O)NO)cc3)cc2)cc(OC)c1 | 10.4 | 6.88 |  |  | 
3 | COc1cc(/C=C/c2ccc(OCc3ccccc3C(=O)NO)cc2)cc(OC)c1 | 13.9 | 7.18 |  |  | 
4 | COc1cc(/C=C/c2ccc(OCc3cccc(C(=O)NO)c3)cc2)cc(OC)c1 | 13.7 | 9.22 |  |  | 
5 | O=C(CCCCCCC(=O)Nc1ccccc1)NO [VORINOSTAT] |  |  | 24% | 26% | > 400
6 | COc1cc(/C=C/c2ccc(O)cc2)cc(OC)c1 [PTEROSTILBENE] | 34.1 | 31.2 | Non-Toxic | Non-Toxic | > 400
7 | COc1cc(/C=C/c2ccc(OCCN3CCN(CC(=O)NO)CC3)cc2)cc(OC)c1 | 8.87 | 7.42 |  |  | 
8 | COc1cc(/C=C/c2ccc(OCCCCC(=O)NO)cc2)cc(OC)c1 | 3.35 | 4.21 |  |  | 
9 | COc1cc(/C=C/c2ccc(OCCc3cn(CC(=O)NO)nn3)cc2)cc(OC)c1 | 7.44 | 6.52 |  |  | 
10 | COc1cc(/C=C/c2ccc(OCCCCCCCC(=O)NO)cc2)cc(OC)c1 | 12.6 | 5.05 |  |  | 
11 | COc1cc(/C=C/c2ccc(OCCCC(=O)NO)cc2)cc(OC)c1 | 5.2 | 3.89 |  |  | 
12 | COc1cc(/C=C/c2ccc(OCCCCCC(=O)NO)cc2)cc(OC)c1 | 4.1 | 3.56 |  |  | 
